Reference: patent publication US6706663B2, “Herbicidal 3-heterocyclic substituted benzisothiazole and benzisoxazole compounds” (Wyeth, priority 2000, dated 2004)

Key:
GALAP (Galium aparine) [1] = assay: Postemergence herbicidal evaluation; type: in vivo
Outline: (§1)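 Seedlings grown for about two weeks were sprayed postemergence and then kept under standard greenhouse care. Injury was rated visually 4–5 weeks after treatment on a 0–9 scale against untreated controls, and ratings from repeat tests were averaged.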

GALAP (Galium aparine) [2] = assay: Preemergence herbicidal evaluation; type: in vivo; settings: preemergence, rated 4-5 weeks after treatment
Outline: (§2)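 Seeds mixed with potting soil were planted atop about one inch of soil, then sprayed with test compound in aqueous acetone. Cups were kept in the greenhouse and rated visually 4–5 weeks after treatment on a 0–9 scale against untreated control.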

ORYSAT (Rice, Tebonnet) = assay: Flooded paddy, post-transplant rice tolerance; type: in vivo, Oryza sativa, (L.) Tebonnet; settings: flooded paddy, post-transplant rice, rated 3-4 weeks after treatment, 0-9 rating scale
Outline: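 Scores (0-9) reflect visual injury relative to untreated plants in flooded silt loam. Each pot held two transplanted ten-day-old seedlings under 1.5 to 3 cm standing water in the greenhouse.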

[3] = system: ABUTH (Abutilon theophrasti); assay: Postemergence herbicidal evaluation; type: in vivo, Medic.
Outline: as §1

[4] = system: MOOVA (Monochoria vaginalis); assay: Flooded paddy, preemergence weed control; type: in vivo, Presl.; settings: rated 3-4 weeks after treatment, 0-9 rating scale
Outline: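 Seeds or propagules were planted in the top 0.5 cm of silt loam soil and kept flooded 1.5–3 cm above the surface throughout, then held in the greenhouse. Injury was rated visually on a 0–9 scale against untreated controls, covering stand, vigor, malformation, size and chlorosis.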

ZEAMX (Corn, Field) = assay: Preemergence herbicidal evaluation; type: in vivo, Zea mays, L.; settings: preemergence, rated 4-5 weeks after treatment
[5] = system: ABUTH (Abutilon theophrasti); assay: Preemergence herbicidal evaluation; type: in vivo, Medic.; settings: preemergence, rated 4-5 weeks after treatment
[6] = system: TRZAWR (Wheat, Winter, cv Riband); assay: Postemergence herbicidal evaluation; type: in vivo, Triticum aestivum
Outline: as §1

[7] = system: IPOHE (Ipomoea hederacea); assay: Postemergence herbicidal evaluation; type: in vivo, (L.) Jacq.
Outline: as §1

SETVI (Setaria viridis) [8] = assay: Postemergence herbicidal evaluation; type: in vivo, (L.) Beau
Outline: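 Seedlings grown about two weeks were sprayed with compound in 50/50 acetone/water containing 0.5% TWEEN 20, at about 0.0040 to 1.000 kg/ha via nozzle at 40 psi. Plants were kept under greenhouse conditions and visually rated on a 0-9 scale versus control four to five weeks after treatment; replicate tests averaged.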

[9] = system: CYPSE (Cyperus serotinus); assay: Flooded paddy, preemergence weed control; type: in vivo, Rottb.; settings: rated 3-4 weeks after treatment, 0-9 rating scale
Outline: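 Seeds or propagules were planted 0.5 cm deep in silt loam and flooded to 1.5–3 cm. Compounds in 50/50 v/v aqueous/acetone were pipetted into the flood water at about 0.0080 to 0.1250 kg/ha. After 3–4 weeks in the greenhouse, effect was rated visually on a 0–9 scale versus untreated control.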

[10] = system: AMBEL (Ambrosia artemisifolia); assay: Preemergence herbicidal evaluation; type: in vivo, L.; settings: preemergence, rated 4-5 weeks after treatment
Outline: as §2

[11] = system: CHEAL (Chenopodium album); assay: Preemergence herbicidal evaluation; type: in vivo, L.; settings: preemergence, rated 4-5 weeks after treatment
Outline: as §2

[12] = system: CASOB (Cassia obtusifolia); assay: Preemergence herbicidal evaluation; type: in vivo, L.; settings: preemergence, rated 4-5 weeks after treatment
Outline: as §2

[13] = system: GLXMAW (Soybean, Williams); assay: Postemergence herbicidal evaluation; type: in vivo, Glycine max, (L.) Merr. cv Williams
Outline: as §1

[14] = system: ECHCG (Echinochloa crus-galli); assay: Preemergence herbicidal evaluation; type: in vivo, (L.) Beau; settings: preemergence, rated 4-5 weeks after treatment
Outline: as §2

SETVI (Setaria viridis) [15] = assay: Preemergence herbicidal evaluation; type: in vivo, (L.) Beau; settings: preemergence, rated 4-5 weeks after treatment
Outline: as §2

Cn1c(C(F)(F)F)cc(=O)n(-c2ccc3snc(-c4ccsc4)c3c2)c1=O [Compound 1, 1-methyl-3-[3-(3-thienyl)-1,2-benzisothiazol-5-yl]-6-(trifluoromethyl)uracil]
5.0: Postemergence herbicidal rating, GALAP (GALAP (Galium aparine) [1]; rate 0.0320 kg/ha)
6.5: Postemergence herbicidal rating, GALAP (GALAP (Galium aparine) [1]; rate 0.0620 kg/ha) | GALAP preemergence herbicidal rating (GALAP (Galium aparine) [2]; Rate 0.2500 kg/ha) | Postemergence herbicidal rating, SETVI (SETVI (Setaria viridis) [8]; rate 0.0620 kg/ha)
6.0: ZEAMX preemergence herbicidal rating (ZEAMX (Corn, Field); Rate 0.0620 kg/ha)
7.3: AMBEL preemergence herbicidal rating ([10]; Rate 0.0620 kg/ha) | CASOB preemergence herbicidal rating ([12]; Rate 0.0620 kg/ha) | ECHCG preemergence herbicidal rating ([14]; Rate 0.0620 kg/ha)
7.8: Postemergence herbicidal rating, GLXMAW ([13]; rate 0.1250 kg/ha)
3.5: Postemergence herbicidal rating, TRZAWR ([6]; rate 0.0320 kg/ha) | Postemergence herbicidal rating, TRZAWR ([6]; rate 0.0620 kg/ha) | herbicidal rating, CYPSE ([9]; rate 0.0320 kg/ha)
6.8: Postemergence herbicidal rating, GLXMAW ([13]; rate 0.0320 kg/ha)
8.3: CASOB preemergence herbicidal rating ([12]; Rate 0.1250 kg/ha) | CASOB preemergence herbicidal rating ([12]; Rate 0.2500 kg/ha)
9.0: GALAP preemergence herbicidal rating (GALAP (Galium aparine) [2]; Rate 0.0620 kg/ha) | Postemergence herbicidal rating, ABUTH ([3]; rate 0.0320 kg/ha) | Postemergence herbicidal rating, ABUTH ([3]; rate 0.0620 kg/ha) | Postemergence herbicidal rating, ABUTH ([3]; rate 0.1250 kg/ha) | herbicidal rating, MOOVA ([4]; rate 0.0080 kg/ha) | herbicidal rating, MOOVA ([4]; rate 0.0320 kg/ha) | herbicidal rating, MOOVA ([4]; rate 0.1250 kg/ha) | ABUTH preemergence herbicidal rating ([5]; Rate 0.0620 kg/ha) | ABUTH preemergence herbicidal rating ([5]; Rate 0.1250 kg/ha) | ABUTH preemergence herbicidal rating ([5]; Rate 0.2500 kg/ha) | Postemergence herbicidal rating, IPOHE ([7]; rate 0.0320 kg/ha) | Postemergence herbicidal rating, IPOHE ([7]; rate 0.0620 kg/ha) | Postemergence herbicidal rating, IPOHE ([7]; rate 0.1250 kg/ha) | herbicidal rating, CYPSE ([9]; rate 0.1250 kg/ha) | AMBEL preemergence herbicidal rating ([10]; Rate 0.1250 kg/ha) | AMBEL preemergence herbicidal rating ([10]; Rate 0.2500 kg/ha) | CHEAL preemergence herbicidal rating ([11]; Rate 0.0620 kg/ha) | CHEAL preemergence herbicidal rating ([11]; Rate 0.1250 kg/ha) | CHEAL preemergence herbicidal rating ([11]; Rate 0.2500 kg/ha) | ECHCG preemergence herbicidal rating ([14]; Rate 0.2500 kg/ha) | SETVI preemergence herbicidal rating (SETVI (Setaria viridis) [15]; Rate 0.0620 kg/ha) | SETVI preemergence herbicidal rating (SETVI (Setaria viridis) [15]; Rate 0.1250 kg/ha) | SETVI preemergence herbicidal rating (SETVI (Setaria viridis) [15]; Rate 0.2500 kg/ha)
4.3: Postemergence herbicidal rating, TRZAWR ([6]; rate 0.1250 kg/ha)
7.5: Postemergence herbicidal rating, GALAP (GALAP (Galium aparine) [1]; rate 0.1250 kg/ha)
5.5: herbicidal rating, ORYSAT (rice tolerance) (ORYSAT (Rice, Tebonnet); rate 0.0320 kg/ha)
6.7: ZEAMX preemergence herbicidal rating (ZEAMX (Corn, Field); Rate 0.1250 kg/ha)
7.0: GALAP preemergence herbicidal rating (GALAP (Galium aparine) [2]; Rate 0.1250 kg/ha) | herbicidal rating, ORYSAT (rice tolerance) (ORYSAT (Rice, Tebonnet); rate 0.1250 kg/ha) | ZEAMX preemergence herbicidal rating (ZEAMX (Corn, Field); Rate 0.2500 kg/ha) | Postemergence herbicidal rating, SETVI (SETVI (Setaria viridis) [8]; rate 0.0320 kg/ha) | Postemergence herbicidal rating, GLXMAW ([13]; rate 0.0620 kg/ha)
8.0: Postemergence herbicidal rating, SETVI (SETVI (Setaria viridis) [8]; rate 0.1250 kg/ha) | ECHCG preemergence herbicidal rating ([14]; Rate 0.1250 kg/ha)
4.0: herbicidal rating, ORYSAT (rice tolerance) (ORYSAT (Rice, Tebonnet); rate 0.0080 kg/ha)
